Read-outs that look alike come from different tables or passages of the source. *1 amine or outer side, *2 acyl side, *3 side chain or, on linkers, in order; H or OH if unused. Where a SMILES comes first, the peptide text is derived from it. Side-chain parts run from the residue outwards. [ ]: non-standard residue; d: D form. The star is where a group is joined. γGlu = O=C(O)[C@H](CCC(=O)[*:2])N[*:1]; Palmitoyl = CCCCCCCCCCCCCCCC(=O)*; Aib = CC(C)(N)C(=O)O
Legend:
[1] = target: human GLP-1R (Homo sapiens, UniProt P43220); experiment: Peptide-receptor mediated cAMP accumulation (LANCE Ultra cAMP) in CHO-K1 cells transfected with human GLP-1R; type: cell-based
[2] = in vivo; conditions: male, rat
[3] = target: human GCGR (Homo sapiens, UniProt P47871); experiment: Peptide-receptor mediated cAMP accumulation (LANCE Ultra cAMP) in CHO-K1 cells transfected with human GCGR; type: cell-based; conditions: read-out: GluR pEC50 (converted)
[4] = hGLP1 pEC50 (cAMP mean (n = 3): 11 point curve starting at 1 nM, Table 3)
[5] = Table 7, GLP-1R, read-out: GLP-1R pEC50 (converted)

Chain of human GCGR (P47871 26-477): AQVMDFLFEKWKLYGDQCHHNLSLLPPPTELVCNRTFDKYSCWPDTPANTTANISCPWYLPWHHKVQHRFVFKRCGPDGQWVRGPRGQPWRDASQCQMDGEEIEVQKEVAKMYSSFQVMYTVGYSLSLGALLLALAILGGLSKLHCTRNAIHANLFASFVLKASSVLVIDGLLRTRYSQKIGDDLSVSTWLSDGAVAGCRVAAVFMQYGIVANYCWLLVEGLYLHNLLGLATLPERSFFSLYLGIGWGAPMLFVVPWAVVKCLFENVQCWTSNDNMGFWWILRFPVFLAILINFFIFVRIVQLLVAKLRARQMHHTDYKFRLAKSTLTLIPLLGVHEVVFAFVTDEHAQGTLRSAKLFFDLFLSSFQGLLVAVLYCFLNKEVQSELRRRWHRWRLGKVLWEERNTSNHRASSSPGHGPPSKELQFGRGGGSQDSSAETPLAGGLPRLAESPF
Chain of human GLP-1R (P43220 24-463): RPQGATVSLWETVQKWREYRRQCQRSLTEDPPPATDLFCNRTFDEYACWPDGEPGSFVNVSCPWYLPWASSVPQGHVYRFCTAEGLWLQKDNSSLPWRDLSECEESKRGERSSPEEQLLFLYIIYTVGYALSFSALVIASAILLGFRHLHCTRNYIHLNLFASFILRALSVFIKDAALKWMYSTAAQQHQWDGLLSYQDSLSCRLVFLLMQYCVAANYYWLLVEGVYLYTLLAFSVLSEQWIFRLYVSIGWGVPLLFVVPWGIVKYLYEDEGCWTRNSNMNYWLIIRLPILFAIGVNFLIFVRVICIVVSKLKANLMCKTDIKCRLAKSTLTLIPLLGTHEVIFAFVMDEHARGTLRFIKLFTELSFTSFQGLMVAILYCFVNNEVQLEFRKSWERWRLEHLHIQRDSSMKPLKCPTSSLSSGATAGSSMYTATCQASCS

## CC(C)C[C@H](NC(=O)[C@H](Cc1ccc(O)cc1)NC(=O)[C@H](CCCCN)NC(=O)[C@H](CO)NC(=O)[C@H](Cc1ccc(O)cc1)NC(=O)[C@H](CC(=O)O)NC(=O)[C@H](CO)NC(=O)[C@@H](NC(=O)[C@H](Cc1ccccc1)NC(=O)[C@@H](NC(=O)CNC(=O)[C@H](Cc1c[nH]cn1)NC(=O)[C@H](CO)NC(=O)[C@@H](N)Cc1ccc(O)cc1)[C@@H](C)O)[C@@H](C)O)C(=O)N[C@@H](CC(=O)O)C(=O)NC(C)(C)C(=O)N[C@@H](CCCCN)C(=O)N[C@@H](CCCNC(=N)N)C(=O)N[C@@H](C)C(=O)N[C@@H](CCC(N)=O)C(=O)N[C@@H](CCC(=O)O)C(=O)N[C@@H](Cc1ccccc1)C(=O)N[C@H](C(=O)NC(C)(C)C(=O)N[C@@H](Cc1c[nH]c2ccccc12)C(=O)N[C@@H](CC(C)C)C(=O)N[C@@H](CCC(=O)O)C(=O)N[C@@H](CC(=O)O)C(=O)N[C@@H](CCC(=O)O)C(=O)N1CCC[C@H]1C(=O)N[C@@H](CO)C(=O)N[C@@H](CO)C(=O)NCC(=O)N[C@@H](C)C(=O)N1CCC[C@H]1C(=O)N1CCC[C@H]1C(=O)N1CCC[C@H]1C(=O)N[C@@H](CO)C(N)=O)C(C)C [Compound A8] (H-YSHGTFTSDYSKYLD[Aib]KRAQEFV[Aib]WLEDEPSSGAPPPS-NH2; N-terminus assumed)
[1]; [4]
  EC50: > 1 nM
[2]
  clearance: 17 mL/min/kg

## CC(C)C[C@H](NC(=O)[C@H](Cc1ccc(O)cc1)NC(=O)[C@H](CCCCN)NC(=O)[C@H](CO)NC(=O)[C@H](Cc1ccc(O)cc1)NC(=O)[C@H](CC(=O)O)NC(=O)[C@H](CO)NC(=O)[C@@H](NC(=O)[C@H](Cc1ccccc1)NC(=O)[C@@H](NC(=O)CNC(=O)[C@H](Cc1c[nH]cn1)NC(=O)[C@H](CO)NC(=O)[C@@H](N)Cc1ccc(O)cc1)[C@@H](C)O)[C@@H](C)O)C(=O)N[C@@H](CC(=O)O)C(=O)NC(C)(C)C(=O)N[C@@H](CCCCN)C(=O)N[C@@H](CCCNC(=N)N)C(=O)N[C@@H](C)C(=O)N[C@@H](CCC(N)=O)C(=O)N[C@@H](CCC(=O)O)C(=O)N[C@@H](Cc1ccccc1)C(=O)N[C@H](C(=O)NC(C)(C)C(=O)N[C@@H](Cc1c[nH]c2ccccc12)C(=O)N[C@@H](CC(C)C)C(=O)N[C@@H](CCC(=O)O)C(=O)N[C@@H](CC(=O)O)C(=O)N[C@@H](CCC(=O)O)C(=O)N1CCC[C@H]1C(=O)N[C@@H](CO)C(=O)N[C@@H](CO)C(=O)NCC(=O)N[C@@H](CCCCN)C(=O)N1CCC[C@H]1C(=O)N1CCC[C@H]1C(=O)N1CCC[C@H]1C(=O)N[C@@H](CO)C(=O)O)C(C)C [Compound A20] (H-YSHGTFTSDYSKYLD[Aib]KRAQEFV[Aib]WLEDEPSSGKPPPS-OH; N-terminus assumed)
[1]; [4]
  EC50: > 1 nM
[2]
  clearance: 15 mL/min/kg

## CC(C)C[C@H](NC(=O)[C@H](Cc1ccc(O)cc1)NC(=O)[C@H](CCCCN)NC(=O)[C@H](CO)NC(=O)[C@H](Cc1ccc(O)cc1)NC(=O)[C@H](CC(=O)O)NC(=O)[C@H](CO)NC(=O)[C@@H](NC(=O)[C@H](Cc1ccccc1)NC(=O)[C@@H](NC(=O)CNC(=O)[C@H](Cc1c[nH]cn1)NC(=O)[C@H](CO)NC(=O)[C@@H](N)Cc1ccc(O)cc1)[C@@H](C)O)[C@@H](C)O)C(=O)N[C@@H](CC(=O)O)C(=O)NC(C)(C)C(=O)N[C@@H](CCCCN)C(=O)N[C@@H](CCCNC(=N)N)C(=O)N[C@@H](C)C(=O)N[C@@H](CCC(N)=O)C(=O)N[C@@H](CCC(=O)O)C(=O)N[C@@H](Cc1ccccc1)C(=O)N[C@H](C(=O)NC(C)(C)C(=O)N[C@@H](Cc1c[nH]c2ccccc12)C(=O)N[C@@H](CC(C)C)C(=O)N[C@@H](CCC(=O)O)C(=O)N[C@@H](CC(=O)O)C(=O)N[C@@H](CCC(=O)O)C(=O)NCC(=O)N1CCC[C@H]1C(=O)N[C@@H](CO)C(=O)N[C@@H](CO)C(=O)NCC(=O)N[C@@H](C)C(=O)N1CCC[C@H]1C(=O)N1CCC[C@H]1C(=O)N1CCC[C@H]1C(=O)N[C@@H](CO)C(=O)O)C(C)C [Compound A28] (H-YSHGTFTSDYSKYLD[Aib]KRAQEFV[Aib]WLEDEGPSSGAPPPS-OH)
[1]; [4]
  EC50: > 1 nM
[2]
  clearance: 34.7 mL/min/kg

## CC(C)C[C@H](NC(=O)[C@H](Cc1c[nH]c2ccccc12)NC(=O)[C@H](CCCCN)NC(=O)[C@H](CO)NC(=O)[C@H](Cc1ccc(O)cc1)NC(=O)[C@H](CC(=O)O)NC(=O)[C@H](CO)NC(=O)[C@@H](NC(=O)[C@H](Cc1ccccc1)NC(=O)[C@@H](NC(=O)CNC(=O)[C@H](Cc1c[nH]cn1)NC(=O)[C@@H](NC(=O)[C@@H](N)Cc1ccc(O)cc1)[C@@H](C)O)[C@@H](C)O)[C@@H](C)O)C(=O)N[C@@H](CC(=O)O)C(=O)NC(C)(C)C(=O)N[C@@H](C)C(=O)N[C@@H](CCCNC(=N)N)C(=O)N[C@@H](C)C(=O)N[C@@H](CCC(N)=O)C(=O)N[C@@H](CCC(=O)O)C(=O)N[C@@H](Cc1ccccc1)C(=O)N[C@H](C(=O)NC(C)(C)C(=O)N[C@@H](Cc1c[nH]c2ccccc12)C(=O)N[C@@H](CC(C)C)C(=O)N[C@@H](CCC(=O)O)C(=O)N[C@@H](CC(=O)O)C(=O)N[C@@H](CCC(=O)O)C(=O)N1CCC[C@H]1C(=O)N[C@@H](CO)C(=O)N[C@@H](CO)C(=O)NCC(=O)N[C@@H](C)C(=O)N1CCC[C@H]1C(=O)N1CCC[C@H]1C(=O)N1CCC[C@H]1C(=O)N[C@@H](CO)C(=O)O)C(C)C [Compound A35] (H-YTHGTFTSDYSKWLD[Aib]ARAQEFV[Aib]WLEDEPSSGAPPPS-OH; N-terminus assumed)
[1]; [4]
  EC50: > 1 nM
[2]
  clearance: 30.1 mL/min/kg

## CCCCCCCCCCCCCCCC(=O)N[C@@H](CCC(=O)NCCCC[C@H](NC(=O)[C@@H](NC(=O)[C@H](Cc1ccccc1)NC(=O)[C@H](CCC(=O)O)NC(=O)[C@H](CCC(N)=O)NC(=O)[C@H](C)NC(=O)[C@H](CCCNC(=N)N)NC(=O)[C@H](C)NC(=O)[C@H](CO)NC(=O)[C@H](CC(=O)O)NC(=O)[C@H](CC(C)C)NC(=O)[C@H](Cc1ccc(O)cc1)NC(=O)[C@H](CCCCN)NC(=O)[C@H](CO)NC(=O)[C@H](Cc1ccc(O)cc1)NC(=O)[C@H](CC(=O)O)NC(=O)[C@H](CO)NC(=O)[C@@H](NC(=O)[C@H](Cc1ccccc1)NC(=O)[C@@H](NC(=O)CNC(=O)[C@H](Cc1c[nH]cn1)NC(=O)[C@H](CO)NC(=O)[C@@H](N)Cc1ccc(O)cc1)[C@@H](C)O)[C@@H](C)O)C(C)C)C(=O)N[C@@H](Cc1c[nH]c2ccccc12)C(=O)N[C@@H](CC(C)C)C(=O)N[C@@H](CCC(=O)O)C(=O)N[C@@H](CC(=O)O)C(=O)N[C@@H](CCC(=O)O)C(=O)N1CCC[C@H]1C(=O)N[C@@H](CO)C(=O)N[C@@H](CO)C(=O)NCC(=O)N[C@@H](C)C(=O)N1CCC[C@H]1C(=O)N1CCC[C@H]1C(=O)N1CCC[C@H]1C(=O)N[C@@H](CO)C(N)=O)C(=O)O [Compound B42] (H-YSHGTFTSDYSKYLDSARAQEFVK([γGlu-Palmitoyl])WLEDEPSSGAPPPS-NH2)
[1]; [5]
  EC50: > 1000 nM
[3]
  EC50: 200 pM

## CCCCCCCCCCCCCCCC(=O)N[C@@H](CCC(=O)NCCCC[C@H](NC(=O)[C@H](CC(=O)O)NC(=O)[C@H](CC(C)C)NC(=O)[C@H](Cc1ccc(O)cc1)NC(=O)[C@H](CCCCN)NC(=O)[C@H](CO)NC(=O)[C@H](Cc1ccc(O)cc1)NC(=O)[C@H](CC(=O)O)NC(=O)[C@H](CO)NC(=O)[C@@H](NC(=O)[C@H](Cc1ccccc1)NC(=O)[C@@H](NC(=O)CNC(=O)[C@H](Cc1c[nH]cn1)NC(=O)[C@H](CO)NC(=O)[C@@H](N)Cc1ccc(O)cc1)[C@@H](C)O)[C@@H](C)O)C(=O)N[C@@H](C)C(=O)N[C@@H](CCCNC(=N)N)C(=O)N[C@@H](C)C(=O)N[C@@H](CCC(N)=O)C(=O)N[C@@H](CCC(=O)O)C(=O)N[C@@H](Cc1ccccc1)C(=O)N[C@H](C(=O)N[C@@H](CCCCN)C(=O)N[C@@H](Cc1c[nH]c2ccccc12)C(=O)N[C@@H](CC(C)C)C(=O)N[C@@H](CCC(=O)O)C(=O)N[C@@H](CC(=O)O)C(=O)N[C@@H](CCC(=O)O)C(=O)N1CCC[C@H]1C(=O)N[C@@H](CO)C(=O)N[C@@H](CO)C(=O)NCC(=O)N[C@@H](C)C(=O)N1CCC[C@H]1C(=O)N1CCC[C@H]1C(=O)N1CCC[C@H]1C(=O)N[C@@H](CO)C(N)=O)C(C)C)C(=O)O [Compound B43]
[1]; [5]
  EC50: > 1000 nM
[3]
  EC50: 7.94 pM

## CCCCCCCCCCCCCCCC(=O)N[C@@H](CCC(=O)NCCCC[C@H](NC(=O)[C@H](CC(=O)O)NC(=O)[C@H](CO)NC(=O)[C@@H](NC(=O)[C@H](Cc1ccccc1)NC(=O)[C@@H](NC(=O)CNC(=O)[C@H](Cc1c[nH]cn1)NC(=O)[C@H](CO)NC(=O)[C@@H](N)Cc1ccc(O)cc1)[C@@H](C)O)[C@@H](C)O)C(=O)N[C@@H](CO)C(=O)N[C@@H](CCCCN)C(=O)N[C@@H](Cc1ccc(O)cc1)C(=O)N[C@@H](CC(C)C)C(=O)N[C@@H](CC(=O)O)C(=O)N[C@@H](CO)C(=O)N[C@@H](C)C(=O)N[C@@H](CCCNC(=N)N)C(=O)N[C@@H](C)C(=O)N[C@@H](CCC(N)=O)C(=O)N[C@@H](CCC(=O)O)C(=O)N[C@@H](Cc1ccccc1)C(=O)N[C@H](C(=O)N[C@@H](CCCCN)C(=O)N[C@@H](Cc1c[nH]c2ccccc12)C(=O)N[C@@H](CC(C)C)C(=O)N[C@@H](CCC(=O)O)C(=O)N[C@@H](CC(=O)O)C(=O)N[C@@H](CCC(=O)O)C(=O)N1CCC[C@H]1C(=O)N[C@@H](CO)C(=O)N[C@@H](CO)C(=O)NCC(=O)N[C@@H](C)C(=O)N1CCC[C@H]1C(=O)N1CCC[C@H]1C(=O)N1CCC[C@H]1C(=O)N[C@@H](CO)C(N)=O)C(C)C)C(=O)O [Compound B44] (H-YSHGTFTSDK([γGlu-Palmitoyl])SKYLDSARAQEFVKWLEDEPSSGAPPPS-NH2)
[1]; [5]
  EC50: 63.1 nM
[3]
  EC50: 1.26 pM

— patent publication US20240239861A1, “GLUCAGON-RECEPTOR SELECTIVE POLYPEPTIDES AND METHODS OF USE THEREOF” (i2O Therapeutics, Inc., priority 2016, published 2024)
